Read-outs that look alike come from different tables or passages of the source.

In test [1] the target is T1, human α4β7 (Homo sapiens, UniProt P13612+P26010).
T1 construct: expressed in transfected cells
T1 sequence (P13612 34-1032): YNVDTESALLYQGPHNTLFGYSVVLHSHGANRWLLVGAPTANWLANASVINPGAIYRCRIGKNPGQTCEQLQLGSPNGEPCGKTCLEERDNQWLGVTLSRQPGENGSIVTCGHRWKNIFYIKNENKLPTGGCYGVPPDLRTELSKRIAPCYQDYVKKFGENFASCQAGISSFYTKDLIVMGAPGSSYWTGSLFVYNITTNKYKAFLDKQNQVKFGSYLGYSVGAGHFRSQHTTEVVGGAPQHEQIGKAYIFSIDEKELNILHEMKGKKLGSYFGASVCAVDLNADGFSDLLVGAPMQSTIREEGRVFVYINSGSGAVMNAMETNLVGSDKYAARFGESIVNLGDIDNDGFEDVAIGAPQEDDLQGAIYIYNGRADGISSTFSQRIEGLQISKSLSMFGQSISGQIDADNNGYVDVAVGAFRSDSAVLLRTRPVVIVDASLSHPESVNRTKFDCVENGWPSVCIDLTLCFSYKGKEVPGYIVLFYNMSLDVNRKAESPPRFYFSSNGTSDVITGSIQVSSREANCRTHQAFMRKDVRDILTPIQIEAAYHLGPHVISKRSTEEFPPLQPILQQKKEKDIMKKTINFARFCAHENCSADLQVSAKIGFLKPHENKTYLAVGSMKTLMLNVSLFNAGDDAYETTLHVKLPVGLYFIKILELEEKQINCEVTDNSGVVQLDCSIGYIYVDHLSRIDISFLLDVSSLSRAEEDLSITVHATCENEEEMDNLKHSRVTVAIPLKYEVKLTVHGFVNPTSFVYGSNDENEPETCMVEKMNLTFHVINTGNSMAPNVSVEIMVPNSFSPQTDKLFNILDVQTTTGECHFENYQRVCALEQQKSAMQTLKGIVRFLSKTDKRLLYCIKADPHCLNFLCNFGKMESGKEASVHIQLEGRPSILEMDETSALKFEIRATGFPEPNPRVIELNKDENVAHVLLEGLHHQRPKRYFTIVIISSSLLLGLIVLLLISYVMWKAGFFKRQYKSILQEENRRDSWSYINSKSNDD
T1 sequence (P26010 20-798): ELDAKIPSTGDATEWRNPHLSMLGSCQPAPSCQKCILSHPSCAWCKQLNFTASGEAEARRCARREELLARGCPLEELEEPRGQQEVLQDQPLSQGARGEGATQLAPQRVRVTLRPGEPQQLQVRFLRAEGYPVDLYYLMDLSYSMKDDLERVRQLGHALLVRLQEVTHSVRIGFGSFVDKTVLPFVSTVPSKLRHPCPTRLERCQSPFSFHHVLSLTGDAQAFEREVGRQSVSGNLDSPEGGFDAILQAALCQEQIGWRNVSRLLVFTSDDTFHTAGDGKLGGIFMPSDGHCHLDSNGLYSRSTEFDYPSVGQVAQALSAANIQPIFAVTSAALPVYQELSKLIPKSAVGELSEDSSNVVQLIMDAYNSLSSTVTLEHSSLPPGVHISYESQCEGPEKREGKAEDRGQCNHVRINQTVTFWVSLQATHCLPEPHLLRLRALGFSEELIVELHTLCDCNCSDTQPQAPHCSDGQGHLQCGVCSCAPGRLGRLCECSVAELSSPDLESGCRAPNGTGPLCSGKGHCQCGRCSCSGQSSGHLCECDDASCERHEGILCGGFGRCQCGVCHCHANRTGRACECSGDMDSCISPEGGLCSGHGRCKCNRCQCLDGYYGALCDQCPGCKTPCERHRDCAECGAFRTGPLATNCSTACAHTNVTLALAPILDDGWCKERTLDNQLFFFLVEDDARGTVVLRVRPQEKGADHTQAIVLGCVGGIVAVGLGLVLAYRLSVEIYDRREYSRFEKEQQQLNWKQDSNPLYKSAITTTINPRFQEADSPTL
Put plainly: α4β7-K562 Cell Adhesion Assay (α4β7 Mediated Adhesion/VCAM-1). The test is classed as cell-based. The method, then: (§1) α4β7-K562 Cell Adhesion Assay (α4β7 Mediated Adhesion/VCAM-1) Immulon 96 well plates (Dynex) were coated with 100 μL recombinant hVCAM-1 at 4.0 μg/mL in 0.05 M NaCO3 buffer pH 9.0 overnight at 4° C. (R&D Systems). Plates were washed 3 times in PBS with 1% BSA and blocked for 1 h @room temperature in this buffer. PBS was removed and compounds to be tested (50 μL) were added at 2× concentration. A stable cell line of K562 cells expressing human α4β7, (50 μL at 2×10^6/mL) labeled with 5 μM Calcein AM (Molecular Probes) for 1 h at 37° C., were added to each well and allowed to adhere for 1 h at room temperature. Plates were washed 3× in PBS+1% BSA and cells were lysed for 15 minutes in 100 μL of 1 M Tris pH 8.0 with 1% SDS. The plate was read at 485 nm excitation and 530 nm emission.

In test [2] the target is T2, α4β1 (Homo sapiens, UniProt P05556+P13612). Put plainly: Ramos Cell Adhesion Assay (α4β1 Mediated Adhesion/VCAM-1). The test is classed as cell-based. The arrangement: Ramos Cell Adhesion Assay (α4β1 Mediated Adhesion/VCAM-1); endogenous in cells; host or cells: Ramos cells. The procedure: as §1, with “Ramos” for “α4β7-K562”, “(α4β1” for “(α4β7”, “@ room” for “@room”, “Ramos cells,” for “A stable cell line of K562 cells expressing human α4β7,”

The target of test [3] is T2, α4β1. The note with it: background, literature; cited from earlier work.
The subject of test [4] is oxazolone-induced contact hypersensitivity. The settings on record: mouse, 6 mg/kg, sc; cited from earlier work.
For test [5], the system named is heterotopic heart allograft. The note with it: hyperlipidemic rabbit; cited from earlier work.
The mark [6] stands for this setting: K562 cells expressing human α4β7, adhesion to recombinant hVCAM-1, read-out: α4β7 IC50.
Where [7] appears, read: Ramos cells, adhesion to recombinant hVCAM-1, read-out: α4β1 IC50.

T2 sequence (P05556 21-798, one chain of several): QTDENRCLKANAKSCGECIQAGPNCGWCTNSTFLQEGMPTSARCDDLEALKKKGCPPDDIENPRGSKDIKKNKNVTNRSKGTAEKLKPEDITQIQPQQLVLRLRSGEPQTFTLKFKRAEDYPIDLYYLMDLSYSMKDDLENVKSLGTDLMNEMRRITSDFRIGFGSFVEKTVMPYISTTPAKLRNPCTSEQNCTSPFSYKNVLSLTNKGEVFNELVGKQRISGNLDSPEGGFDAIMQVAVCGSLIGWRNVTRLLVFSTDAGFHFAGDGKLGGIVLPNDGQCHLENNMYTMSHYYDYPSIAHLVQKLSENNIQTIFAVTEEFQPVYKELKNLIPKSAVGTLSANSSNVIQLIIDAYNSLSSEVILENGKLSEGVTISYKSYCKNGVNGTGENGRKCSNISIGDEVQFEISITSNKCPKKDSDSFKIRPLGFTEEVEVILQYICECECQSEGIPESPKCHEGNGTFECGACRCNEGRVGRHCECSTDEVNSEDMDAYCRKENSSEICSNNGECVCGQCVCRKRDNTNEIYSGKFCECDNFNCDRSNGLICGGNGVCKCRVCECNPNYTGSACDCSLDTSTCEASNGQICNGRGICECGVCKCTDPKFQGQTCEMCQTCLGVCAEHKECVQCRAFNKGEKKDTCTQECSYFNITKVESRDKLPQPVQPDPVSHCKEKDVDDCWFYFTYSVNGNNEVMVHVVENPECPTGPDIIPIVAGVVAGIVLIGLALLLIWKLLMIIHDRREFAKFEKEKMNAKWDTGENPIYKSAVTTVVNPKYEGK

Consider `CC(C)(O)CCCC(=O)N1C2CCC(CC2)C1C(=O)NC(Cc1ccc(NC(=O)c2c(Cl)cncc2Cl)cc1)C(=O)O` (centres unmarked) [Cpd 11], for which the results for the IC50 in test [1] (setting [6]) and in test [2] (setting [7]) were 0.047 µM and 0.014 µM, respectively.
The like results for `O=C(O)C(Cc1ccc(OC(=O)N2CCOCC2)cc1)NC(=O)C1C2CCC(CC2)N1C(=O)CCc1ccc2c(c1)OCO2` (centres unmarked) [Cpd 23] were, in that order, 0.277 µM and 0.217 µM.
As for `O=C(Nc1ccc(CC(NC(=O)C2C3CCC(CC3)N2C(=O)CS(=O)(=O)c2ccccc2)C(=O)O)cc1)c1c(Cl)cncc1Cl` (centres unmarked) [Cpd 6], the IC50 was found to be 0.027 µM in test [1] (setting [6]) and 0.015 µM in test [2] (setting [7]).
For the compound `CN(C)CCC(=O)N1C2CCC(CC2)C1C(=O)NC(Cc1ccc(NC(=O)c2c(Cl)cncc2Cl)cc1)C(=O)O` (centres unmarked) [Cpd 16], the IC50 in test [1] (setting [6]) came out at 0.177 µM; in test [2] (setting [7]), 0.023 µM.
As for `COCCC(=O)N1C2CCC(CC2)C1C(=O)NC(Cc1ccc(NC(=O)c2c(Cl)cncc2Cl)cc1)C(=O)O` (centres unmarked) [Cpd 12], the IC50 in test [1] (setting [6]) turned out to be 0.117 µM; in test [2] (setting [7]) it was 0.008 µM.
As for `O=C(Nc1ccc(CC(NC(=O)C2C3CCC(CC3)N2C(=O)CSc2ccc(F)cc2)C(=O)O)cc1)c1c(Cl)cncc1Cl` (centres unmarked) [Cpd 2], the IC50 came to 0.02 µM in test [1] (setting [6]) and 0.006 µM in test [2] (setting [7]).
Consider `CS(=O)(=O)CC(=O)N1C2CCC(CC2)C1C(=O)NC(Cc1ccc(NC(=O)c2c(Cl)cncc2Cl)cc1)C(=O)O` (centres unmarked) [Cpd 5], for which the results for the IC50 in test [1] (setting [6]) and in test [2] (setting [7]) were 0.032 µM and 0.017 µM, respectively.
With `O=C(Nc1ccc(CC(NC(=O)C2C3CCC(CC3)N2C(=O)CCO)C(=O)O)cc1)c1c(Cl)cccc1Cl` (centres unmarked) [Cpd 9], the IC50 came out at 0.067 µM in test [1] (setting [6]) and 0.135 µM in test [2] (setting [7]).
`COCCC(=O)N1C2CCC(CC2)C1C(=O)NC(Cc1ccc(OC(=O)N(C)C)cc1)C(=O)O` (centres unmarked) [Cpd 14]: the figures for the IC50 in test [1] and in test [2] were 0.304 µM and 1.27 µM, respectively.
As to `O=C(Nc1ccc(CC(NC(=O)C2C3CCC(CC3)N2C(=O)CSc2ccccn2)C(=O)O)cc1)c1c(Cl)cncc1Cl` (centres unmarked) [Cpd 1], the IC50 in test [1] (setting [6]) turned out to be 0.01 µM; in test [2] (setting [7]), 0.009 µM.
For the compound `O=C(Nc1ccc(CC(NC(=O)C2C3CCC(CC3)N2C(=O)CCc2ccc3c(c2)OCO3)C(=O)O)cc1)c1c(Cl)cccc1Cl` (centres unmarked) [Cpd 22], the IC50 was 0.035 µM in test [1] (setting [6]) and 0.045 µM in test [2] (setting [7]).
The matching figures for `O=C(Nc1ccc(CC(NC(=O)C2C3CCC(CC3)N2C(=O)CSc2ccncc2)C(=O)O)cc1)c1c(Cl)cncc1Cl` (centres unmarked) [Cpd 3]: 0.006 µM and 0.006 µM.
For `COCCC(=O)Nc1ccc(CC(NC(=O)C2C3CCC(CC3)N2C(=O)CCOC)C(=O)O)cc1` (centres unmarked) [Cpd 13], the values for the IC50 in test [1] (setting [6]) and in test [2] (setting [7]) were 2.37 µM and more than 1 µM, respectively.
`O=C(O)C(Cc1ccc(OC(=O)N2CCOCC2)cc1)NC(=O)C1C2CCC(CC2)N1C(=O)CCO` (centres unmarked) [Cpd 10]: the IC50 in test [1] (setting [6]) was 0.896 µM; in test [2] (setting [7]) it was more than 1 µM.
For the compound `O=C(Nc1ccc(CC(NC(=O)C2C3CCC(CC3)N2C(=O)CCO)C(=O)O)cc1)c1c(Cl)cncc1Cl` (centres unmarked) [Cpd 8], the IC50 in test [1] (setting [6]) stood at 0.006 µM; in test [2] (setting [7]) it was 0.004 µM.
Consider `NCCC(=O)N1C2CCC(CC2)C1C(=O)NC(Cc1ccc(NC(=O)c2c(Cl)cncc2Cl)cc1)C(=O)O` (centres unmarked) [Cpd 15], for which the IC50 in test [1] (setting [6]) came to 0.06 µM; in test [2] (setting [7]) it was 0.029 µM.
Turning to Phenylacetyl-Leu-Asp-Phe-D-Pro-NH2, the IC50 in test [3] was 2 µM. Further, the “efficacy in oxazolone-induced contact hypersensitivity” value in test [4] is reported as “efficacy similar to the α4 antibody PS/2”. Further, in test [5], the “efficacy in heart allograft model” value is “effective”.

The term IC50 denotes the point on the concentration scale where inhibition reaches its midpoint.
